Source: patent US11137397B2, “Peptides for blocking IL1RAP protein-protein interaction and uses thereof for treatment of disease” (Albert Einstein College of Medicine, priority 2014, dated 2021)
No end group written: not given here.

Assays:
[1] = system: healthy bone marrow mononuclear cells (BMMNC); experiment: Clonogenic assay in methylcellulose, healthy BMMNC; format: cell-based; settings: 300 μM for 4 hours, colonies scored at 14 days
Description: FIG. 6. […] BMMNC were exposed to scrambled peptide (scrambled), or IL1RAP peptides (P1 and P2) for 4 hours at 300 μM concentrations or left untreated (UT) and evaluated for colony formation capacity in methylcellulose. Colonies were scored at 14 days. The results are expressed as total number of colonies/5×10^4 plated cells. Error bars represent the standard deviation of two replicates.
Cell viability was assessed at the indicated time points by trypan blue staining and manual cell counts. Viable cells were plated in methylcellulose (StemCell technologies H4434, or R&D HSC002SF) at 1000 cells/ml in 6-well plates for cell lines and at 5×10^4 cells/ml for bone marrow mononuclear cells (BMMNC). Cells were incubated at 37° C. and 5% CO2. Colonies were scored after 7 days or 14 days in culture for cell lines or primary cells, respectively.

THP-1 cells [2] = experiment: Flow cytometric determination of cell death (Annexin V/DAPI); format: cell-based, human; settings: 300 μM
Description: FIG. 8. IL1RAP blockade causes cell death of IL1RAP dependent human leukemia cells. THP1 cells were exposed to 300 μM IL1RAP peptides (P1 and P2), scrambled control peptide (scrambled), peptide buffer (vehicle) or left untreated (UT) and evaluated for cell viability determined by Annexin V/DAPI staining and flow cytometry. The results are expressed as percentage of total cells.
In order to determine viability after peptide treatment, 1×10^4 THP-1 cells were washed with PBS and mixed with pre-diluted PE-conjugated Annexin V (BD Pharmigen) and DAPI. Cells were stained at room temperature for 15 minutes and suspended in 0.2 ml of Annexin V-FLUOS incubation buffer (Roche) for analysis.

THP-1 cells [3] = experiment: Cell morphology (cytospin, Diff-Quick staining); format: cell-based, human; settings: THP-1 cells that remained viable after 24 hours of treatment
Description: FIG. 9. IL1RAP blockade changes in cell morphology of IL1RAP dependent human leukemia cells. THP1 cells were exposed to 100 μM IL1RAP peptide P2, scrambled control peptide (scrambled), peptide buffer (vehicle) or left untreated and evaluated for cell morphology.
1×10^4 THP-1 cells after treatment with peptides were rinsed with PBS and 0.1 ml of cell suspension was cytospun onto polylysine coated slides at minimum speed for 4 minutes in a cytocentrifuge (StatSpin Cytofuge). Slides were stained according to manufacturer's protocol using the Romanowsky staining Diff-Quick (IMEB) kit. Cells were imaged with an Axiovert 200M microscope (Zeiss) and Olympus SZ61 microscope.

Substance | inhibitory effects on healthy control bone marrow mononuclear cells (clonogenic potential) [1] | overall reduction in viability in comparison to the scrambled control peptide (THP-1 cells [2]) | cell morphology (THP-1 cells [3])
AGDKDRLIVMENKPTRPV [Peptide P1, AGDKDRLIVMENKPTRPV] | no inhibitory effects | 14% | 
AGDKDRLIVMENKPTHGID [Peptide P2, AGDKDRLIVMENKPTHGID] | no inhibitory effects | 28% | 
LKDMPGRPNERDKVAlTV (LKDMPGRPNERDKVAITV; not fully specified) [scrambled peptide] |  |  | maintained a blast-like morphology
